Source: patent publication US9085791B2, “Method for screening substance relating to endoplasmic reticulum stress participating in onset of diabetes” (THE UNIVERSITY OF TOKUSHIMA, priority 2011, dated 2015)

Assays:
Format in all cases: cell-based
ATF6 activation [1] = experiment: ATF6 activity reporter system (EGFPS-ATF6d and EGFPL expression vectors) in HEK293 cells, green fluorescence
Source text: An EGFPS-ATF6d expression vector and an EGFPL expression vector were produced using a green fluorescent protein GFP as a reporter protein. An ATF6 activity reporter system having the two vectors was introduced into the following cell strains.
The EGFPS-ATF6d expression vector and the EGFPL expression vector were introduced into HEK293 cells using a polyethylene imine method at an efficiency of not less than 90%. Through an electroporation method using NEON (electroporation device) (Invitrogen), the EGFPS-ATF6d expression vector and the EGFPL expression vector were introduced into MIN6 cells, HepG2 cells, 3T3-L1 cells, and L6 cells at an efficiency of not less than 80%, 60%, 90%, and 70%, respectively.
In order to confirm that the ATF6 activity reporter system functions in an endoplasmic reticulum stress-dependent manner, the EGFPS-ATF6d expression vector and the EGFPL expression vector were coexpressed or individually expressed in HEK293 cells.
In the cells in which the EGFPS-ATF6d expression vector and the EGFPL expression vector were coexpressed, green fluorescence was slightly observed. The cells were stimulated with 0.2 ug/ml tunicamycin, which is an endoplasmic reticulum stress inducer, and observed 6 hours after the stimulation.
It is important that ATF6 activity reporter system is capable of detecting ATF6 activation in an endoplasmic reticulum stress-specific manner. Therefore, HEK293 cells in which the EGFPS-ATF6d expression vector and the EGFPL expression vector are coexpressed are stimulated by etoposide, which is a DNA replication inhibitor; thapsigargin, which is an endoplasmic reticulum stress inducer; and DTT, which is an endoplasmic reticulum stress inducer, in an amount of 100 uM, 0.2 uM, and 1 mM, respectively; and the presence of fluorescence was observed.

HEK293 cells = experiment: Hoechst33258 staining for cell death of stimulated HEK293 cells; settings: etoposide 100 uM, thapsigargin 0.2 uM, DTT 1 mM, after 36 hours
MIN6 cells = experiment: Insulin secretion in pancreatic β-cell MIN6 cells (ELISA); settings: thapsigargin 0.2 uM or DTT 1 M for 30 minutes, culture 36 hours, then KREBS buffer with 3 mM or 20 mM glucose for 1 hour
Protocol: A control solution (DMSO), a thapsigargin solution (thapsigargin/DMSO solution), or a DTT solution (DTT/DMSO solution) was added to a culture solution (DMEM containing 10% fetal bovine serum) in which pancreatic p-cell MIN6 cells are cultured, and the culture solution was replaced with a general culture solution (DMEM containing 10% fetal bovine serum) after 30 minutes. Then, the culture was continued for 36 hours. The thapsigargin solution was added so that the thapsigargin concentration in the culture solution became 0.2 uM, and the DTT solution was added so that the DTT concentration in the culture solution became […]. Thereafter, the culture solution was replaced with a KREBS buffer solution containing 3 mM or 20 mM glucose, and the culture was continued for 1 hours. The concentration of insulin secreted in the culture solution was measured according to the ELISA method.

ATF6 activation [2] = experiment: ATF6 activity reporter system in mouse fibroblasts modified by deleting Ire1α gene or PERK gene; settings: 0.2 ug/ml tunicamycin, 6 hours
Protocol: The endoplasmic reticulum stress response is known to be controlled by three individual pathways. It is important that the ATF6 activity reporter system enables detection of ATF6 activation with no influence of other pathways, such as Ire1 pathway or PERK pathway. In this connection, the EGFPS-ATF6d expression vector and the EGFPL expression vector were coexpressed in mouse fibroblasts modified by deleting Ire1α gene or PERK gene. The cells were observed 6 hours after stimulation with 0.2 ug/ml tunicamycin, which is an endoplasmic reticulum stress inducer.

IRE1 pathway = experiment: Ire1 activation reporter (XBP1 splicing) in cell strains derived from different organs; settings: 0.2 ug/ml tunicamycin, 6 hours
Source text: (§1) The endoplasmic reticulum stress response is controlled by the three pathways, namely, Ire1 pathway, PERK pathway, and ATF6 pathway. Apart from the homeostasis of endoplasmic reticulum, they are also individually involved in control of organ-specific metabolism. Detection of the three endoplasmic reticulum stress response pathways is considered important to discover a drug targeting organ-specific endoplasmic reticulum stress response with fewer side effects. […] Med. (2004) 10 98-102, for measuring Ire1 pathway by XBP1 splicing, and a PERK activation reporter expression vector, disclosed in J Cell Biol. (2004) 167 27-33, for measuring PERK pathway by ATF4 translation were produced. An EGFPS-ATF6d expression vector, an EGFPL expression vector, the Ire1 activation reporter expression vector, and the PERK activation reporter expression vector were expressed in pancreatic β-cell strain MIN6 cells, hepatic cell strain HepG2 cells, adipose cell strain 3T3-L1 cells, and skeletal muscle cell strain L6 cells, respectively. The cells were observed 6 hours after the stimulation with 0.2 ug/ml tunicamycin, which is an endoplasmic reticulum stress inducer.

ATF6 pathway = experiment: ATF6 activity reporter system in cell strains derived from different organs; settings: HepG2, MIN6, L6, 3T3-L1 cells; 0.2 ug/ml tunicamycin, 6 hours
Source text: as §1

PERK pathway = experiment: PERK activation reporter (ATF4 translation) in cell strains derived from different organs; settings: HepG2, MIN6, L6, 3T3-L1 cells; 0.2 ug/ml tunicamycin, 6 hours
Source text: as §1

[3] = HEK293 cells coexpressing both vectors, etoposide 100 uM, thapsigargin 0.2 uM, DTT 1 mM

O[C@H](CS)[C@H](O)CS (racemic) [DTT, dithiothreitol]
green fluorescence (ATF6 activation [1]; [3]): significant green fluorescence was observed
cell death (Hoechst33258 staining) (HEK293 cells): severe enough to cause cell death after 36 hours
insulin secretion (concentration of insulin secreted in the culture solution) (MIN6 cells): insulin secretion was suppressed

COc1cc([C@@H]2c3cc4c(cc3[C@@H](O[C@@H]3O[C@@H]5CO[C@@H](C)O[C@H]5[C@H](O)[C@H]3O)[C@H]3COC(=O)[C@H]23)OCO4)cc(OC)c1O [etoposide]
green fluorescence (ATF6 activation [1]; [3]): no green fluorescence was observed
cell death (Hoechst33258 staining) (HEK293 cells): severe enough to cause cell death after 36 hours

C/C=C(/C)C(=O)O[C@H]1C(C)=C2[C@H]([C@@H]1OC(=O)CCCCCCC)[C@@](C)(OC(C)=O)C[C@H](OC(=O)CCC)[C@@]1(O)[C@H]2OC(=O)[C@@]1(C)O [thapsigargin]
green fluorescence (ATF6 activation [1]; [3]): significant green fluorescence was observed
cell death (Hoechst33258 staining) (HEK293 cells): severe enough to cause cell death after 36 hours
insulin secretion (concentration of insulin secreted in the culture solution) (MIN6 cells): insulin secretion was suppressed

tunicamycin
green fluorescence (ATF6 activation [1]; 0.2 ug/ml tunicamycin, 6 hours after stimulation, HEK293 cells coexpressing EGFPS-ATF6d and EGFPL expression vectors): significant green fluorescence was observed
green fluorescence (ATF6 activation [1]; 0.2 ug/ml tunicamycin, 6 hours after stimulation, HEK293 cells with EGFPS-ATF6d and EGFPL expression vectors individually expressed): no green fluorescence was observed
green fluorescence (ATF6 activation [2]; fibroblast modified by Ire1α gene deletion): significant green fluorescence was observed
green fluorescence (ATF6 activation [2]; fibroblast modified by PERK gene deletion): significant green fluorescence was observed
activation of IRE1 pathway (fluorescence intensity) (IRE1 pathway; adipose cell strain 3T3-L1 cells): relatively low
activation of IRE1 pathway (fluorescence intensity) (IRE1 pathway; hepatic cell strain HepG2 cells): relatively high
activation of IRE1 pathway (fluorescence intensity) (IRE1 pathway; pancreatic β-cell strain MIN6 cells): relatively high
activation of IRE1 pathway (fluorescence intensity) (IRE1 pathway; skeletal muscle cell strain L6 cells): relatively high
intensity of activation of ATF6 pathway, order among cell strains (ATF6 pathway): highest in hepatic cell strain HepG2 cells, followed by pancreatic β-cell strain MIN6 cells, skeletal muscle cell strain L6 cells, and adipose cell strain 3T3-L1 cells in descending order
degree of the activation of PERK pathway, order among cell strains (PERK pathway): highest in hepatic cell strain HepG2 cells (pancreatic β-cell strain MIN6 cells and skeletal muscle cell strain L6 cells), followed by adipose cell strain 3T3-L1 cells
